Experimental data published in patent US20220118123A1, “COMBINATION OF AR ANTAGONISTS AND TARGETED THORIUM CONJUGATES” (Bayer Aktiengesellschaft, priority 2019, published 2022).

What was measured:
C4-2 cells [1] = assay: cell surface binding of PSMA antibody-chelator conjugate by flow cytometry after co-culture with AR antagonists; assay type: cell-based; conditions: 10 μM darolutamide; 7, 14 and 21 days co-culturing; saturating conjugate concentrations; vs DMSO reference
Protocol: (§1) The effects of PSMA-TTC compound A′ and compound B (darolutamide, ODM-201) or compound C (enzalutamide) in PSMA overexpressing prostate cancer cell lines LNCaP and C4-2 were investigated in vitro. LNCaP (hormone sensitive) and C4-2 (hormone insensitive) cells were co-cultured in presence of either enzalutamide or darolutamide/ODM-201 and the effect on cell binding of PSMA-conjugate and cytotoxicity of PSMA-TTC was evaluated.
(§2) C4-2 and LNCaP cells were seeded in similar cell medium (RPMI/10% FBS/1% HEPES/1% MEM NEAA/1% NaPyruvate/1% L-glutamine). One day after seeding, cells were exposed to either enzalutamide (1 μM), darolutamide (=ODM-201) (10 μM) or DMSO (0.1% (v/v); reference). Seven, 14 and 21 days after co-culturing, the cells were analyzed for cell surface binding of PSMA antibody-chelator conjugate by flow cytometry. The binding of PSMA conjugate at saturating concentrations increased in both cell lines after treatment with the AR antagonists: maximal binding of PMSA conjugate was increased by 1 μM enzalutamide by 1.9 to 2.8 fold and by 10 μM darolutamide by 1.7-3.6 fold. Similar results were obtained in LNCaP cells. In addition, cells pre-treated in the presence or absence of AR antagonists at the respective concentrations entered cytotoxicity experiments using cell titer Glo (Promega) as readout for cell viability.

C4-2 cells [2] = assay: in vitro cytotoxicity of PSMA-TTC with AR antagonist pre-treatment, cell titer Glo cell viability; assay type: cell-based; conditions: then PSMA-TTC dose titration (50 MBq/mg), 5 days incubation
Protocol: as §1
as §2, with “The binding of PSMA conjugate at saturating concentrations increased in both cell lines after treatment with the AR antagonists: maximal binding of PMSA conjugate was increased by 1 μM enzalutamide by 1.9 to 2.8 fold and by 10 μM darolutamide by 1.7-3.6 fold. Similar results were obtained in LNCaP cells.” left out
Respective cells pretreated for 0 or 7 days with AR antagonists were seeded on Day −1 at an appropriate cell density (e.g. 1000 cells/well). […] Cell viability was measured after incubation for 5 days in the presence of dose titrations of PSMA-TTC or corresponding controls. […]

[3] = test system: KUCaP-1 human patient derived prostate cancer model; assay: anti-tumor activity in KUCaP-1 patient derived prostate cancer xenograft model; assay type: in vivo, mice; conditions: KUCaP-1, day 32
[4] = test system: ST1273 human patient derived prostate cancer model; assay: anti-tumor activity in ST1273 patient derived prostate cancer xenograft model; assay type: in vivo, mice
[5] = ST1273, 26 days after dosing/start of treatment

## CC(O)c1cc(C(=O)N[C@@H](C)Cn2ccc(-c3ccc(C#N)c(Cl)c3)n2)n[nH]1 (stereo partly drawn) [darolutamide, N-((S)-1-(3-(3-Chloro-4-cyanophenyl)-1H-pyrazol-1-yl-)-propan-2-yl)-5-(1-hydroxyethyl)-1H-pyrazole-3-carboxamide]
C4-2 cells [1]
  increase of maximal binding of PSMA conjugate: 1.7-3.6 fold
C4-2 cells [2]; darolutamide 10 μM for 7 days
  sensitivity to growth inhibition by PSMA-TTC: increased sensitivity to growth inhibition by PSMA-TTC
[3]
  PD, progressive disease (mice/group): (PD: 10/10)
[3]; PSMA-TTC 150 kBq/kg i.v., darolutamide 200 mg/kg QD p.o.
  Response rate (RR): RR: 0%

## CNC(=O)c1ccc(N2C(=S)N(c3ccc(C#N)c(C(F)(F)F)c3)C(=O)C2(C)C)cc1F [enzalutamide]
C4-2 cells [2]; enzalutamide 1 μM for 7 days
  sensitivity to growth inhibition by PSMA-TTC: increased sensitivity to growth inhibition by PSMA-TTC
[4]; [5]
  complete response, share of the mice: 33%
  partial response, share of the mice: 67%
[4]; ST1273, day 26
  CR, complete response (mice/group): (CR: 3/9,
  PR, partial response (mice/group): PR: 6/9)
[4]; ST1273, day 26, PSMA-TTC 250 kBq/kg single i.v., enzalutamide 30 mg/kg QD×28 p.o.
  Response rate (RR): RR: 100%
